Results reported in ChEMBL document CHEMBL3098057, “(E)-Alkenes as replacements of amide bonds: development of novel and potent acyclic CGRP receptor antagonists” (Bioorg Med Chem Lett, 2014).
pKi: −log10 of the molar value.

How the values were obtained:
[1] = Apparent passive permeability of the compound in presence of […]; type: physicochemical; conditions: not told
[2] = test system: human MDR1; test: Efflux ratio of permeability from basolateral to apical side over apical to basolateral side in pig LLC-PK1 cells expressing human MDR1; type: ADME, cell-based, Sus scrofa
[3] = target: Calcitonin-gene-related peptide receptor, CALCRL/RAMP1 (Homo sapiens, UniProt O60894+Q16602); test: Displacement of [125I]-hCGRP from human CALCRL/RAMP1 expressed in HEK293 cell membranes
[4] = Clearance in rat at 2 mg/kg; type: ADME, organism-based; set-up: dose 2 mg/kg; conditions: in vivo
[5] = Half life in rat at 2 mg/kg; type: ADME, organism-based; set-up: dose 2 mg/kg; conditions: in vivo
[6] = Oral bioavailability in rat at 10 mg/kg; type: ADME, organism-based; conditions: in vivo

Chain of Calcitonin-gene-related peptide receptor, CALCRL/RAMP1 (O60894 whole entry): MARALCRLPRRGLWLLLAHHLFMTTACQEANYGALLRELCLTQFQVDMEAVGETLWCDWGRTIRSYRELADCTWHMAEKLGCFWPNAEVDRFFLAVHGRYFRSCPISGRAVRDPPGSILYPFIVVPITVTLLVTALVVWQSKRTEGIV
Chain of Calcitonin-gene-related peptide receptor, CALCRL/RAMP1 (Q16602 whole entry): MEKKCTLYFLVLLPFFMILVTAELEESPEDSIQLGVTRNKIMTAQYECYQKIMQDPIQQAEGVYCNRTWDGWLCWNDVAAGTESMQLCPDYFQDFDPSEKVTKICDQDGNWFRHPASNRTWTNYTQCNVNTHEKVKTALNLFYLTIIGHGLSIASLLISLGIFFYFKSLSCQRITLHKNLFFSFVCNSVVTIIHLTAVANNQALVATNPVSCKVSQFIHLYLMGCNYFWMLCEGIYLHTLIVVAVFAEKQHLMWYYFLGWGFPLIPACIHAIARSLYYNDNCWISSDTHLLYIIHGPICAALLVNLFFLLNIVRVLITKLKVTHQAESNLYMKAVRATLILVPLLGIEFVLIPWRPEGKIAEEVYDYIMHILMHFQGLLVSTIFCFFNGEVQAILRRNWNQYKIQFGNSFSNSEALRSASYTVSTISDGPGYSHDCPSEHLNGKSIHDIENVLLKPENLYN

| Papp [1] [×10⁻⁶ cm/s] | efflux ratio [2] | pKi [3] | clearance [4] [mL/min/kg] | half-life [5] [h] | bioavailability [6] [%] | SMILES |
| --- | --- | --- | --- | --- | --- | --- |
| 20 | 1.3 |  |  |  |  | C[C@H](c1cc(F)cc(F)c1)N(Cc1cnc2cc3c(cc2c1)C[C@@]1(C3)C(=O)Nc2ncccc21)C(=O)C(C)(C)C |
|  |  | 9.46 |  |  |  | C[C@H](c1ccccc1)N(C/C=C/c1ccc2c(c1)C[C@@]1(C2)C(=O)Nc2ncccc21)C(=O)C(C)(C)C |
|  |  | 9.70 |  |  |  | CC(C)(C)C(=O)N(C/C=C/c1ccc2c(c1)C[C@@]1(C2)C(=O)Nc2ncccc21)[C@@H]1CCc2ccccc21 |
| 32 | 1.9 | 10.05 |  |  |  | C[C@H](c1cc(F)cc(F)c1)N(C/C=C/c1ccc2c(c1)C[C@@]1(C2)C(=O)Nc2ncccc21)C(=O)C1CCOCC1 |
|  |  | 9.66 |  |  |  | C[C@H](c1ccccc1)N(C/C=C/c1cnc2c(c1)C[C@@]1(C2)C(=O)Nc2ncccc21)C(=O)C(C)(C)C |
| 24 | 3.1 | 10.10 |  |  |  | CC(C)(C)C(=O)N(C/C=C/c1cnc2c(c1)C[C@@]1(C2)C(=O)Nc2ncccc21)[C@@H]1CCc2ccccc21 |
| 23 | 0.9 | 9.03 |  |  |  | CC(C)(C)C(=O)N(C/C=C/c1cnc2c(c1)C[C@@]1(C2)C(=O)Nc2ncccc21)Cc1cc(F)cc(F)c1 |
| 20 | 0.8 | 9.05 |  |  |  | CC(C)(C)C(=O)N(C/C=C/c1cnc2c(c1)C[C@@]1(C2)C(=O)Nc2ncccc21)C1CCCCCC1 |
| 18 | 1.1 |  |  |  |  | Cc1ccc([C@@H](C)N(C/C=C/c2cnc3c(c2)C[C@@]2(C3)C(=O)Nc3ncccc32)C(=O)C(C)(C)C)cc1F |
| 17 | 1 | 9.51 |  |  |  | C[C@H](c1ccc(Cl)cc1)N(C/C=C/c1cnc2c(c1)C[C@@]1(C2)C(=O)Nc2ncccc21)C(=O)C(C)(C)C |
| 29 | 16 | 8.62 |  |  |  | Cc1noc(C)c1C(=O)N(C/C=C/c1cnc2c(c1)C[C@@]1(C2)C(=O)Nc2ncccc21)[C@H](C)c1cc(F)cc(F)c1 |
|  |  | 9.70 |  |  |  | CC(C)(C)C(=O)N(CC#Cc1ccc2c(c1)C[C@@]1(C2)C(=O)Nc2ncccc21)[C@@H]1CCc2ccccc21 |
|  |  | 9.09 |  |  |  | C[C@H](c1ccccc1)N(CC#Cc1ccc2c(c1)C[C@@]1(C2)C(=O)Nc2ncccc21)C(=O)C(C)(C)C |
| 26 | 1.1 | 10.30 |  |  |  | CC(C)(C)C(=O)N(CC#Cc1cnc2c(c1)C[C@@]1(C2)C(=O)Nc2ncccc21)[C@@H]1CCc2ccccc21 |
|  |  | 8.12 |  |  |  | C[C@H](c1ccccc1)N(CCCc1ccc2c(c1)C[C@@]1(C2)C(=O)Nc2ncccc21)C(=O)C(C)(C)C |
| 26 | 3.2 |  | 11 | 1 |  | C[C@H](c1cc(F)cc(F)c1)N(CC(=O)Nc1ccc2c(c1)C[C@@]1(C2)C(=O)Nc2ncccc21)C(=O)C(C)(C)C |
|  |  | 9.80 |  |  |  | C[C@H](c1cc(F)cc(F)c1)N(C/C=C/c1ccc2c(c1)C[C@@]1(C2)C(=O)Nc2ncccc21)C(=O)C(C)(C)C |
| 25 | 8.8 |  |  |  |  | C[C@H](c1cc(F)cc(F)c1)N(CC(=O)Nc1ccc2c(c1)C[C@@]1(C2)C(=O)NC(=O)N1C)C(=O)C(C)(C)C |

The remaining lines, values behind:

| SMILES | Papp [1] [×10⁻⁶ cm/s] | efflux ratio [2] | pKi [3] | clearance [4] [mL/min/kg] | half-life [5] [h] | bioavailability [6] [%] |
| --- | --- | --- | --- | --- | --- | --- |
| C[C@H](c1cc(F)cc(F)c1)N(C/C=C/c1ccc2c(c1)C[C@@]1(C2)C(=O)Nc2ncccc21)C(=O)[C@@H]1CCCN1C | 33 | 27 | 8.47 |  |  |  |
| CC(C)C(=O)N(C/C=C/c1ccc2c(c1)C[C@@]1(C2)C(=O)Nc2ncccc21)[C@H](C)c1cc(F)cc(F)c1 |  |  | 8.90 |  |  |  |
| Cc1cc(C(=O)N(C/C=C/c2ccc3c(c2)C[C@@]2(C3)C(=O)Nc3ncccc32)[C@H](C)c2cc(F)cc(F)c2)n(C)n1 | 17 | 2 | 9.35 |  |  |  |
| C[C@H](c1cc(F)cc(F)c1)N(C/C=C/c1cnc2c(c1)C[C@@]1(C2)C(=O)Nc2ncccc21)C(=O)C(C)(C)C | 27 | 1.4 | 10.40 | 23 | 11 | 51 |
| C[C@H](c1cc(F)cc(F)c1)N(C/C=C/c1cnc2c(c1)C[C@@]1(C2)C(=O)Nc2ncccc21)C(=O)C1(C(F)(F)F)CC1 | 21 | 2 |  |  |  |  |
| Cc1ccsc1C(=O)N(C/C=C/c1cnc2c(c1)C[C@@]1(C2)C(=O)Nc2ncccc21)[C@H](C)c1cc(F)cc(F)c1 | 17 | 1.5 | 9.89 |  |  |  |
| C[C@H](c1cc(F)cc(F)c1)N(C/C=C/c1cnc2c(c1)C[C@@]1(C2)C(=O)Nc2ncccc21)C(=O)c1nccn1C | 28 | 19 | 9.80 |  |  |  |
| C[C@H](c1ccccc1)N(CC#Cc1cnc2c(c1)C[C@@]1(C2)C(=O)Nc2ncccc21)C(=O)C(C)(C)C | 33 | 1.3 | 9.89 |  |  |  |
| CC(C)(C)C(=O)N(CCCc1ccc2c(c1)C[C@@]1(C2)C(=O)Nc2ncccc21)[C@@H]1CCc2ccccc21 |  |  | 8.69 |  |  |  |
| C[C@H](c1cc(F)cc(F)c1)N(CCCc1cnc2c(c1)C[C@@]1(C2)C(=O)Nc2ncccc21)C(=O)C(C)(C)C | 26 | 3.1 | 9.66 |  |  |  |
| CC(C)(C)C(=O)N(CCCc1cnc2c(c1)C[C@@]1(C2)C(=O)Nc2ncccc21)[C@@H]1CCc2ccccc21 | 33 | 2.6 | 9.21 |  |  |  |
| C[C@H](c1ccccc1)N(CCCc1cnc2c(c1)C[C@@]1(C2)C(=O)Nc2ncccc21)C(=O)C(C)(C)C | 39 | 3.2 | 8.87 |  |  |  |
